“Also recorded” adds a separate entry of the source.
Columns and labels:
[1] = tested on: male FVB/N mice on high salt diet, heart; experiment: High salt (5%) diet intervention model, heart; format: in vivo, mouse; conditions: for expression of P-IκBα (marker for NFκB activation) in heart: peptides 75 pmol/kg/min s.c.; for cardiac fibrosis (picrosirius red): weeks 5-8 of high salt diet, peptides 75 pmol/kg/min s.c. mini-pump, captopril 3 mg/kg/day in drinking water
Procedure, shortened: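 Male FVB/N mice fed 5% salt diet for 8 weeks (controls 0.35% NaCl); from week 4, AT2R agonist at 75 pmol/kg/min or saline given subcutaneously by osmotic minipump for 4 weeks on continued high salt. Heart collagen by picrosirius red, % interstitial staining averaged over eight fields; immunofluorescence for fibrosis/inflammation markers.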

[2] = tested on: male FVB/N mice on high salt diet, kidney; experiment: High salt (5%) diet intervention model, kidney; format: in vivo, mouse; conditions: 75 pmol/kg/min s.c., weeks 5-8
Description: (§1) C) In the intervention (or reversal) model, male FVB/N mice were treated with selective AT2Rs agonists after the establishment of cardiovascular disease using a high salt diet, in order to reverse cardiovascular pathologies. In some experiments, the ACE inhibitor captopril (dose) or the ARB candesartan cilexetil (dose) were given for 4 weeks in drinking water. Organs examined included heart, kidney and liver and these were compared to either untreated mice or high salt-fed mice that were treated with saline.
(§2) Mice were placed on either a normal rodent diet (0.35% NaCl) which acted as control or a high salt diet (5% sodium in food chow) for 8 weeks. After 4 weeks, mice were also treated subcutaneously (via osmotic mini-pump) with either saline or an AT2R agonist (75 pmol/kg/min subcutaneously) for 4 weeks. Mice continued to be fed a high salt diet whilst receiving these treatments.
To measure collagen deposition, frozen sections of heart, kidney or aorta (all 5 μm thickness) were air dried for 10 minutes and were brought through 3 times xylene (2 minutes each), and 3 times absolute alcohol washes before being rinsed in tap H2O for 30 seconds. Staining with an optimal concentration of picrosirius red (in this instance 0.05% picrosirius red diluted in saturated picric acid) was performed and left for an hour. Sections were then rinsed in water and differentiated in 0.01M HCl for 2 minutes, followed by dehydration via 3 times absolute alcohol washes. Then, slides were brought through 3 times xylene washes before being cover slipped according to standard histological techniques using DPX as the mounting medium. Images were taken under ×20 magnification, using bright field (Olympus, BX51) and circularized polarized light microscopy (DM IRB, Leica) while percentage of positive interstitial collagen staining per total field of view was quantified using ImageJ 1.46 software (Java, NIH), and averaged out from a total of eight views as the final percentage collagen content in a particular animal.
Kidney sections used either picrosirius red staining as described above or using Mason's Trichrome staining as described below.
Formalin fixed, paraffin embedded kidneys were sectioned at thickness of 4 μm and were stained with Masson's trichrome according to standard procedures for analysis of kidney fibrosis. […] Sections were re-fixed in Bouin's solution for 1 hour at 56° C. to improve staining quality then rinsed in running tap water for 5-10 minutes to remove yellow colour. Following this, sections were stained in Weigert's iron hematoxylin working solution for 10 minutes. Rinsed in running warm tap water for 10 minutes. Washed in distilled water. Stained in Biebrich scarlet-acid fuchsin solution for 10-15 minutes. Washed in distilled water. Differentiated in phosphomolybdic-phosphotungstic acid solution for 10-15 minutes or until collagen was no longer red. Sections were transferred directly (without rinse) to aniline blue solution and stained for 5-10 minutes. Rinsed briefly in distilled water and differentiated in 1% acetic acid solution for 2-5 minutes. Washed in distilled water. […] Mounted with DPX mounting medium.
Quantification of kidney fibrosis was performed using images captured with the Aperio scanner (Monash Histology Platform, Monash University), with ×5 magnification. Each kidney section had 5 different fields of view photographed at this magnification. Percentage of tubulointerstitial collagen was analysed and quantified using ImageJ 1.48 software (Java, NIH), and the percentage from 5 random fields of view were averaged for final percentage of collagen for that particular animal. All analysis of collagen expression was conducted in a blinded fashion.

[3] = In vitro plasma stability assay (rat plasma); format: in vitro ADME; conditions: plasma from male spontaneously hypertensive rats (SHR), read-out: Plasma stability (t1/2)
Description: Proteolytic stability may be tested in a plasma stability assay used to assess the susceptibility of a peptide described herein to plasma proteases. Plasma stability may be tested using methods described herein. For example, a sample of rat plasma may be incubated with peptide of interest (final concentration was 1 mg/mL; plasma diluted by 10% with peptide dissolved in saline). Protease activity is then quenched in samples by the addition of acetonitrile, at selected time intervals. The amount of parent compound remaining at each time point can then be assayed on an Agilent 1100 MSD SL ion trap mass spectrometer. The peaks observed in the resulting chromatograms are integrated, compared to a standard curve, and cross-checked by mass and retention time (Jones et al 2011 Hypertension. 57: 570-576).
B) Proteolytic stability was tested in a plasma stability assay used to assess the susceptibility of Ang II peptides to plasma proteases. A sample of rat plasma was incubated with peptide of interest (final concentration was 1 mg/mL; plasma diluted by 10% with peptide dissolved in saline). Protease activity was quenched in samples by the addition of acetonitrile, at selected time intervals. The amount of parent compound remaining at each time point was then assayed on an Agilent 1100 MSD SL ion trap mass spectrometer. […]

human AT1R = biological target: T1, human AT1R (Homo sapiens, UniProt P30556); experiment: Competition radioligand binding (125I-Sar1-Ile8-AngII) in AT1R-transfected HEK-293 cells
T1 construct: expressed in transfected cells
T1 sequence (P30556 1-359): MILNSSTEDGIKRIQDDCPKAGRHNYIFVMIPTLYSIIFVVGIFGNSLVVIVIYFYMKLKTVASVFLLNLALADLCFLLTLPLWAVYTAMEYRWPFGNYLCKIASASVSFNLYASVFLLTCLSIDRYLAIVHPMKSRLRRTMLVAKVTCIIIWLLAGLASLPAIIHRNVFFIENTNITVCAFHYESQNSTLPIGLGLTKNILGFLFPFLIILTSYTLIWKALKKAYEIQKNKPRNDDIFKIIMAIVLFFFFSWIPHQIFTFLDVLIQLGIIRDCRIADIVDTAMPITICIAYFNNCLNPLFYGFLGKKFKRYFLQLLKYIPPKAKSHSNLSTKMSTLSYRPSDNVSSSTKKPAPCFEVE
Description: (§3) This will lead to the generation of IC50 values that determine the relative ability of test compounds to interact with both Angiotensin receptors.
(§4) Cells were grown to approximately 80% confluence before being re-plated into 48 well plates at 1×10^5 cells/well and grown for 48 hours at 37° C. for a whole cell competition binding assay. [125I]-Sar1Ile8Ang II at 50,000 cpm, incubated for 45 minutes at 37° C., in the absence or presence of unlabeled ligands, prepared in binding buffer (DMEM, 0.1% BSA), were used in the competition assays at concentrations ranging from 1 μM to 10 μM. For each experiment, each ligand concentration was tested in duplicate or triplicate, and each experiment was repeated at least 3 separate times. […] The ability of each ligand to inhibit specific binding of [125I]-Sar1Ile8Ang II was measured on a gamma counter with all counts corrected for NSB.

human AT2R = biological target: T2, human AT2R (Homo sapiens, UniProt P50052); experiment: Competition radioligand binding (125I-Sar1-Ile8-AngII) in AT2R-transfected HEK-293 cells; conditions: transfected HEK-293 cells
T2 construct: expressed in transfected cells
T2 sequence (P50052 1-363): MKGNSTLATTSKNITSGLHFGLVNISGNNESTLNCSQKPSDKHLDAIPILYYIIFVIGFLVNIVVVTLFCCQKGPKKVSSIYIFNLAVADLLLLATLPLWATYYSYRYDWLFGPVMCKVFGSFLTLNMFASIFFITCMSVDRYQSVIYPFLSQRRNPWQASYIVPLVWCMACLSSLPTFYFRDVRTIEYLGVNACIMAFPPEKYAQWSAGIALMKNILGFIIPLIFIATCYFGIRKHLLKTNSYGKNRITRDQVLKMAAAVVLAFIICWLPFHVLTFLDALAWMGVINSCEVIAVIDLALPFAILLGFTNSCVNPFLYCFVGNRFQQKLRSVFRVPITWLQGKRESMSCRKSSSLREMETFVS
Description: as §3, §4

[4] = tested on: male FVB/N mice on high salt diet, kidney; experiment: High salt (5%) diet intervention model, kidney; format: in vivo, mouse; conditions: 75 pmol/kg/min s.c., weeks 5-8; remark: listed apart in the source
[5] = tested on: male FVB/N mice on high salt diet, liver; experiment: High salt (5%) diet intervention model, liver; format: in vivo, mouse; conditions: weeks 5-8, peptides 75 pmol/kg/min s.c., Cand 2 mg/kg/day, captopril 3 mg/kg/day
Description: as §1, §2
Liver sections used either picrosirius red staining or Masson's trichome staining as described above. Higher concentrations of picrosirius red were often used under polarized light microscopy. The liver was removed and sectioned with half of the liver placed in 10% formalin and the rest frozen in liquid nitrogen before being stored in ˜80° C. freezer for future use. Formalin fixed, paraffin embedded livers were sectioned at thickness of 4 μm and were stained with Masson's trichrome according to standard procedures for analysis of liver fibrosis. […] Sections were re-fixed in Bouin's solution for 1 hour at 56° C. to improve staining quality then rinsed in running tap water for 5-10 minutes to remove yellow colour. Following this, sections were stained in Weigert's iron hematoxylin working solution for 10 minutes. Rinsed in running warm tap water for 10 minutes. Washed in distilled water. Stained in Biebrich scarlet-acid fuchsin solution for 10-15 minutes.
Washed in distilled water. Differentiated in phosphomolybdic-phosphotungstic acid solution for 10-15 minutes or until collagen was no longer red. Sections were transferred directly (without rinse) to aniline blue solution and stained for 5-10 minutes. Rinsed briefly in distilled water and differentiated in 1% acetic acid solution for 2-5 minutes. Washed in distilled water. […] Mounted with DPX mounting medium. Quantification of liver fibrosis was performed using images captured with the Aperio scanner (Monash Histology Platform, Monash University), with ×5 magnification. Each liver section had 5 different fields of view photographed at this magnification. Percentage of interstitial and perivascular collagen was analysed and quantified using ImageJ 1.48 software (Java, NIH), and the percentage from 5 random fields of view were averaged for final percentage of collagen for that particular animal. All analysis of collagen expression was conducted in a blinded fashion.

[6] = Systolic blood pressure by tail-cuff in high salt-fed mice; format: in vivo, mouse; conditions: data not shown
Description: The incision area was sutured with 6/0 DY silk ([…] Ltd) and antibiotic powder applied ([…], Pfizer) followed by intramuscular injection of the analgesic Cartrophen (0.1 ml of a 1.5 mg/ml stock solution; Biopharm Australia). Systolic blood pressure (SBP) was measured using non-invasive tail-cuff plethysmography apparatus (MC4000 Blood Pressure Analysis System, Hatteras Instrument Inc) before drug treatment (week 0), and then fortnightly. At the end of the 8 week treatment period mice were weighed before being killed by overdose of isoflurane inhalation and cervical dislocation. […] To this end, modified Ang peptides of interest were dissolved in saline and delivered subcutaneously via an implanted osmotic minipump and systolic blood pressure (SBP) was measured fortnightly.

For `CC[C@H](C)[C@H](NC(=O)[C@H](Cc1ccc(O)cc1)NC(=O)[C@@H](NC(=O)[C@H](CCCNC(=N)N)NC(C)=O)C(C)C)C(=O)N[C@@H](Cc1c[nH]cn1)C(=O)N1CCC[C@H]1CC(=O)N[C@@H](Cc1c[nH]c2ccccc12)C(=O)O` [NAc-βPro-Trp-8-Ang III, NAc--Arg-Val-Tyr-Ile-His-β-Pro-Trp], the “cardiac fibrosis by hydroxyproline analysis (LV collagen content)” value ([1]; 75 pmol/kg/min s.c., weeks 5-8) was “reversed the pro-fibrotic effects of high salt in the heart”, the “cardiac oxidative stress (DHE staining)” value ([1]; 75 pmol/kg/min s.c., weeks 5-8) was “reversed the oxidative stress effects of high salt in the heart” and the “myofibroblast differentiation in heart (α-SMA)” value ([1]; 75 pmol/kg/min s.c., weeks 5-8) was “reversed myofibroblast differentiation”. For the same molecule, the “expression of P-IκBα (marker for NFκB activation) in heart” value ([1]; weeks 5-8, Cand 2 mg/kg/day, captopril 3 mg/kg/day) was “reversed”, the “cardiac fibrosis (picrosirius red)” value ([1]; Cand 2 mg/kg/day) was “reversed cardiac fibrosis” and the “kidney glomerular fibrosis (picrosirius red)” value [2] was “reversed the glomerular fibrosis caused by high salt in the kidney”. The “kidney tubulointerstitial fibrosis (picrosirius red)” value [2] was “reversed the tubulointerstitial fibrosis caused by high salt in the kidney”, the half-life at 1 mg/mL [3] was 25.8 h and the “binding at AT1R (displacement of 125I-Sar1-Ile8-AngII), in words” value (human AT1R) was “bind poorly”. For the same molecule, the “binding at AT2R (displacement of 125I-Sar1-Ile8-AngII), in words” value (human AT2R) was “high affinity”, the “macrophage infiltration in kidney (F4/80)” value [4] was “reversed high salt-induced macrophage infiltration in the kidney” and the “renal fibrosis by hydroxyproline analysis” value [4] was “reversed the pro-fibrotic effects of high salt in the kidney”. For the same molecule, the “renal inflammation (phospho-IκBα expression)” value [4] was “reversed high salt-induced renal inflammation in the kidney”.
With `CC[C@H](C)[C@@H](CC(=O)N[C@@H](Cc1c[nH]cn1)C(=O)N1CCC[C@H]1C(=O)N[C@@H](Cc1ccccc1)C(=O)O)NC(=O)[C@H](Cc1ccc(O)cc1)NC(=O)[C@@H](NC(=O)[C@H](CCCNC(=N)N)NC(=O)[C@@H](N)CC(=O)O)C(C)C` [βIle-Ang II, Asp-Arg-Val-Tyr-β-Ile-His-Pro-Phe] the “TGF-β1 protein in the heart (Western blot)” value ([1]; 75 pmol/kg/min s.c., weeks 5-8) was “significantly lower TGF-β1 protein”, the “myofibroblast differentiation in heart (α-SMA)” value ([1]; 75 pmol/kg/min s.c., weeks 5-8) was “reduced myofibroblast differentiation” and the “MMP-13 protein expression in heart (Western blot)” value ([1]; weeks 5-8, peptide 75 pmol/kg/min s.c., Cand 2 mg/kg/day, captopril 3 mg/kg/day) was “normalised MMP-13 to levels observed in the normal salt group”. The “macrophage infiltration/expression in heart (F4/80)” value ([1]; weeks 5-8, peptide 75 pmol/kg/min s.c., Cand 2 mg/kg/day, captopril 3 mg/kg/day, listed as β-Ile^5-Ang II) was “reversed by all agents; also recorded: reduced macrophage infiltration/expression”, the “expression of P-IκBα (marker for NFκB activation) in heart” value ([1]; weeks 5-8, Cand 2 mg/kg/day, captopril 3 mg/kg/day, listed as β-Ile^5-Ang II) was “significantly reduced expression of P-IκBα” and the “cardiac fibrosis (picrosirius red)” value ([1]; Cand 2 mg/kg/day, listed as β-Ile^5-Ang II) was “reversed high salt-induced cardiac fibrosis”. The “liver steatosis (Oil Red O)” value [5] was “significantly reduced excess lipid accumulation”, the “liver fibrosis (picrosirius red, polarized light)” value ([5]; listed as 8-Ile^5-Ang II) was “reversed collagen accumulation to levels seen in normal salt group” and the “liver fibrosis (picrosirius red, polarized light)” value ([5]; listed as β-Ile^5-Ang II) was “similarly inhibited the pro-fibrotic effects of high salt in the liver”. For the same molecule, the “systolic blood pressure (SBP)” value [6] was “did not alter SBP”, the “kidney tubulointerstitial fibrosis (Masson's trichrome)” value [2] was “reversed high salt-induced tubulointerstitial fibrosis” and the “macrophage infiltration in kidney (F4/80)” value [4] was “reversed”.

Reference: patent publication US11331368B2, “Angiotensin receptor agonists and uses thereof” (Monash University, priority 2017, dated 2022)
